# Assay results taken from patent publication US20260034227A1, “AZLACTONE-BASED POLYMERS AS A SCAFFOLD FOR DIVERSE APPLICATIONS IN DRUG AND GENE DELIVERY” (University of Mississippi, priority 2022, published 2026).
# Experiment: Pharmacokinetics of DBAC generated from polymer-drug conjugate (UPLC-MS/MS)
# Type: in vivo, CD-1 mice
# Conditions: CD1 mice; for F: oral relative to intravenous, 10 mg/kg
# Description: UPLC-MS/MS. Chromatography was performed on an AcquityTM UPLC system (Waters Corp, Milford, MA) with an autosampler temperature at 10° C. Waters Acquity UPLC® BEH Phenyl column (3.0×50 mm, 1.7 μm particle size) was used for chromatographic separation with linear gradient elution consisting of (A) 90% acetonitrile and (B) 10% of 0.2% formic acid in Milli-Q water as mobile phases. The flow rate was set at 0.30 mL/min, and the injection volume was 2 μL. An Acquity Tandem Quadrupole Mass Detector (Xevo TQ-S; Waters Corp, Milford, MA) in positive electrospray ionization mode was used for mass spectrometric detection. For collision-induced dissociation, argon was used as collision gas. The cone voltage and collision energy were set at 40 V and 24 V for DBAC and 40 V and 26 V for the tolbutamide (IS), respectively. Quantification was performed using the monitoring of multiple reaction monitoring (MRM) of following transitions: m/z 276/186 for DBAC and m/z 271/90.9 for IS. […] Pharmacokinetics of […]. All procedures were performed in compliance with the University of Mississippi Animal Care and Use Committee and following the National Institutes of Health (NIH) guidelines. […] Either DBAC or […] were administered at 10 mg/kg through oral gavage or retro-orbital IV injection at a volume of 0.1 mL. The vehicle for DBAC was 10% absolute alcohol, 10% cremophor and 80% Milli-Q water, whereas the […] polymer was administered in 100% PBS. […] Blood was collected by cardiac puncture and stored in K2 EDTA tubes (SAI Infusion Technologies, #MVCB-E-300). Mice were then perfused through heart with PBS (Life Technologies, #10-010-072). Plasma was harvested by centrifuging the blood using Eppendorf […] Centrifuge (Germany) at 5,000 rpm for 5 min and stored frozen at -80±10° C. until analysis. […] Sample preparation for DBAC detection. A simple protein precipitation method was followed for extraction of DBAC from mice plasma. To an aliquot of 50 μL of plasma or tissue (GI tract, heart, lung, spleen, liver or kidney) samples, tolbutamide (internal standard, IS) solution (5 μL of 20 ng/ml) was added and mixed for 15 s on a cyclomixer (Thermo Scientific, IN, USA). After precipitation with 500 μL of acetonitrile, the mixture was vortexed for 2 min, followed by centrifugation for 10 min at 14,000 rpm on an accuSpin Micro 17R (Fisher Scientific, USA) at 5° C. An aliquot of 150 μL of clear supernatant was transferred into vials and 2 μL was injected into the UPLC-MS/MS system for analysis. The primary stock solutions of DBAC and tolbutamide (IS) were prepared in methanol at 1.0 mg/mL concentration. Working solutions of calibration standards and quality control (QC) samples were prepared by dilution with methanol and stored at -20° C. A working stock of the IS solution (20 ng/ml) was prepared in methanol and stored at -20° C.
# [1] = GI tract, intravenous 10 mg/kg conjugate
# [2] = GI tract, oral 10 mg/kg conjugate
# [3] = Heart, intravenous 10 mg/kg conjugate
# [4] = Kidney, intravenous 10 mg/kg conjugate
# [5] = Kidney, oral 10 mg/kg conjugate
# [6] = Liver, intravenous 10 mg/kg conjugate
# [7] = Lung, intravenous 10 mg/kg conjugate
# [8] = Plasma, intravenous 10 mg/kg conjugate
# [9] = Plasma, oral 10 mg/kg conjugate
# [10] = Spleen, intravenous 10 mg/kg conjugate
substance,measurement,setting,value
"N-(2-hydroxyethyl)-N,N-dimethyl-2-oxo-2-(2-oxo-2H-chromen-3-yl)ethanaminium [DBAC]",AUC0-α,[1],18544 ± 156 ng·h/g
same,CO,[1],4899 ± 1104 ng/g
same,t1/2,[1],6.97 ± 1.03 h
same,AUC0-α,[2],95643 ± 1023 ng·h/g
same,Tmax,[2],1.25 ± 0.53 h
same,F,GI tract,>100 ± 47.5%
same,AUC0-α,[3],8914 ± 512 ng·h/g
same,CO,[3],4961 ± 715 ng/g
same,t1/2,[3],2.20 ± 0.78 h
same,AUC0-α,"Heart, oral 10 mg/kg conjugate",1008 ± 95.6 ng·h/g
same,Tmax,"Heart, oral 10 mg/kg conjugate",4.38 ± 0.53 h
same,F,Heart,11.3 ± 2.57%
same,AUC0-α,[4],10575 ± 1910 ng·h/g
same,CO,[4],41296 ± 2103 ng/g
same,t1/2,[4],3.49 ± 0.59 h
same,AUC0-α,[5],490 ± 101 ng·h/g
same,Tmax,[5],0.50 ± 0.00 h
same,F,Kidney,4.64 ± 2.59%
same,AUC0-α,[6],17457 ± 3832 ng·h/g
same,CO,[6],36898 ± 2501 ng/g
same,t1/2,[6],2.24 ± 0.37 h
same,AUC0-α,"Liver, oral 10 mg/kg conjugate",1464 ± 346 ng·h/g
same,Tmax,"Liver, oral 10 mg/kg conjugate",0.63 ± 0.25 h
same,F,Liver,8.38 ± 1.98%
same,AUC0-α,[7],1772 ± 141 ng·h/g
same,CO,[7],1326 ± 202 ng/g
same,t1/2,[7],3.73 ± 0.47 h
same,AUC0-α,"Lung, oral 10 mg/kg conjugate",1315 ± 85.6 ng·h/g
same,Tmax,"Lung, oral 10 mg/kg conjugate",1.25 ± 0.68 h
same,F,Lung,74.2 ± 25.3%
same,AUC0-α,[8],1586 ± 125 ng·h/mL
same,CO,[8],7216 ± 1023 ng/mL
same,t1/2,[8],1.09 ± 0.12 h
same,AUC0-α,[9],120 ± 65.0 ng·h/mL
same,Cmax,[9],119 ± 25.3 ng/mL
same,Tmax,[9],0.75 ± 0.29 h
same,F,Plasma,7.59 ± 2.48%
same,AUC0-α,[10],1089 ± 124 ng·h/g
same,CO,[10],1026 ± 248 ng/g
same,t1/2,[10],2.27 ± 0.55 h
